Laboratory results published in ChEMBL document CHEMBL1140078 (J Med Chem, 2008).

Legend:
[1] = in vitro; conditions: CD1, mouse, liver microsomes
Description: Metabolic stability in CD1 mouse liver microsomes at 10 uM after 30 mins

[2] = in vitro; conditions: human, liver microsomes
Description: Metabolic stability in human liver microsomes at 10 uM after 30 mins

[3] = biological target: Phosphatidylinositol 4,5-bisphosphate 3-kinase catalytic subunit alpha isoform (Homo sapiens, UniProt P42336)
Description: Inhibition of human recombinant PI3K p110alpha expressed in Sf9 cells coexpressing p85alpha by radiometric scintillation proximity assay

[4] = in vivo; conditions: CD1, mouse, po, 10 mg/kg
[5] = in vivo; conditions: rat, po, 10 mg/kg
[6] = Aqueous solubility at pH 7.4 by turbidimetric assay; assay type: physicochemical

Phosphatidylinositol 4,5-bisphosphate 3-kinase catalytic subunit alpha isoform, sequence (P42336 whole entry, canonical isoform): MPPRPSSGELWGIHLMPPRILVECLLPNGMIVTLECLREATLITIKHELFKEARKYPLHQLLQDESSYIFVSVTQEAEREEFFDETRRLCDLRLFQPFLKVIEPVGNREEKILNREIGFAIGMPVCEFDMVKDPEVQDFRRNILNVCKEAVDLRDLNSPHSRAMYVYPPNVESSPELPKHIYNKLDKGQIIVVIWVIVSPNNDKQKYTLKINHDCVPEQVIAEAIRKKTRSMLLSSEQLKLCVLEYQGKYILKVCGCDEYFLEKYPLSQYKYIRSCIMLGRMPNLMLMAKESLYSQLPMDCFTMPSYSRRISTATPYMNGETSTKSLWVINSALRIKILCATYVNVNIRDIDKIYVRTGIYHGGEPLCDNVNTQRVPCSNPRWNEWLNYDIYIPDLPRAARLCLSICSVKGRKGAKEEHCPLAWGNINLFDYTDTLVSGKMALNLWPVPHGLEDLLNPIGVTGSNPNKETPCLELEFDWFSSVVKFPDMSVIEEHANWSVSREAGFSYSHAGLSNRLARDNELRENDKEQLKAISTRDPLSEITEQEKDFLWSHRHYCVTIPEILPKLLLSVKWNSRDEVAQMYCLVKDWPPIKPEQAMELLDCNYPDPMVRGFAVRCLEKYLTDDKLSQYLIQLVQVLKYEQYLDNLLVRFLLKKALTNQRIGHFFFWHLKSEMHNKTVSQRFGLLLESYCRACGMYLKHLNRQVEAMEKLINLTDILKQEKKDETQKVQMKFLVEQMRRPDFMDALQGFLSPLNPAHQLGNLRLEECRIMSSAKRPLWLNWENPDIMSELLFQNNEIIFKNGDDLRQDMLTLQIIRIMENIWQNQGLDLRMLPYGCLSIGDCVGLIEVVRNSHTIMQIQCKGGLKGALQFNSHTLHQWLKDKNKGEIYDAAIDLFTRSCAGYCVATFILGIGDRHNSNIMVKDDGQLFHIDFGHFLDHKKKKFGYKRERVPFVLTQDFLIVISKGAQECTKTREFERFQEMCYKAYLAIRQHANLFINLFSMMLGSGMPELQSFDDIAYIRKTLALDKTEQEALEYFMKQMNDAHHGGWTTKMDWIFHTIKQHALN

Row | remaining at 0.5 h, 10 µM [1] | remaining at 0.5 h, 10 µM [2] | IC50 [3] | bioavailability [4] | bioavailability [5] | solubility kinetic [6] | SMILES
1 | 64% | – | – | – | – | – | Cc1cc2nc(-c3cccc(O)c3)nc(N3CCOCC3)c2s1
2 | 5% | 51% | 21 nM | – | – | – | Cc1csc2c(N3CCOCC3)nc(-c3cccc(O)c3)nc12
3 | 81% | 81% | – | 31% | 37% | – | CN1CCN(Cc2cc3nc(-c4cccc5[nH]ncc45)nc(N4CCOCC4)c3s2)CC1
4 | 32% | 74% | – | 11% | – | – | CN(C)Cc1cc2nc(-c3cccc(O)c3)nc(N3CCOCC3)c2s1
5 | 13% | 57% | – | – | – | > 100 µM | COCCN(C)Cc1cc2nc(-c3cccc(O)c3)nc(N3CCOCC3)c2s1
6 | – | – | 2450 nM | – | – | – | c1cc2nc(-c3ccc4cn[nH]c4c3)nc(N3CCOCC3)c2s1
7 | 25% | 32% | – | – | – | – | Oc1cccc(-c2nc(N3CCOCC3)c3sccc3n2)c1
8 | 90% | 90% | – | 7% | 0% | > 100 µM | OCCN1CCN(Cc2cc3nc(-c4cccc(O)c4)nc(N4CCOCC4)c3s2)CC1
9 | 85% | 85% | – | 10% | 2% | > 100 µM | CN1CCN(Cc2cc3nc(-c4cccc(O)c4)nc(N4CCOCC4)c3s2)CC1
